Here are results for ten compounds from ChEMBL document CHEMBL1201862, “PubChem BioAssay data set” (2004).

Test systems include OVCAR-4; SR; A498; UACC-62; T47D; SK-MEL-5; MCF7; MDA-MB-435; EKVX; SK-MEL-2; SK-OV-3; NCI-H460; HCT-116; RXF 393; HCC 2998; MOLT-4; TK-10; U-251; K562; LOX IMVI.
Common to all, as to test: growth of human tumour cells (NCI), 48 h

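48-hour exposure; five concentrations; linearly interpolated endpoints. GI50 is the concentration that inhibits growth by half.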 The source made the active and inactive calls. Rule as the data show it: active = GI50 up to about 1.1 µM and inactive = higher.

Regarding `C=C1c2nc3ccccc3n2C=C(c2ccc(Cl)cc2)N1c1ccc(OCCN2CCCCC2)cc1`, the GI50 with OVCAR-4, in the experiment with SR, in the experiment with A498, in the experiment with UACC-62, with T47D and in the experiment on SK-MEL-5 was > 45 µM (inactive) each time. Besides, the GI50 in the experiment on MCF7 is > 45 µM (inactive); with MDA-MB-435 it was 1.59 µM (inactive); in the experiment on EKVX it was > 45 µM (inactive); in the experiment on SK-MEL-2, > 45 µM (inactive); in the experiment with SK-OV-3, > 45 µM (inactive); in the experiment on NCI-H460, 1.72 µM (inactive). The GI50 in the experiment with HCT-116 was > 45 µM (inactive); in the experiment with RXF 393, > 45 µM (inactive); in the experiment with HCC 2998, > 100 µM (inactive); in the experiment on MOLT-4, > 45 µM (inactive); in the experiment on TK-10, > 45 µM (inactive); with U-251, > 45 µM (inactive). The GI50 with K562 and with LOX IMVI was > 45 µM (inactive) throughout.

Regarding `Oc1nc2c(c(-c3cccc(Cl)c3)n1)COC/C2=C\c1cccc(Cl)c1`, the GI50 in the experiment on OVCAR-4, in the experiment on SR, in the experiment on A498, in the experiment with UACC-62, in the experiment on T47D and in the experiment with SK-MEL-5 was > 100 µM (inactive) throughout. The GI50 in the experiment on MCF7, in the experiment with MDA-MB-435, in the experiment with EKVX, in the experiment on SK-MEL-2, in the experiment with SK-OV-3 and in the experiment with NCI-H460 was > 100 µM (inactive) each time. Also, the GI50 in the experiment with HCT-116, in the experiment with RXF 393, in the experiment with HCC 2998, in the experiment on MOLT-4, in the experiment with TK-10 and with U-251 was > 100 µM (inactive) throughout. Also, the GI50 in the experiment on K562 and in the experiment on LOX IMVI was > 100 µM (inactive) throughout.

Turning to `C/C=C1/CN2CCC34c5ccccc5N5C(=O)C(C6CC78c9ccccc9N9C(=O)C=CC(C%10CC7N6C/C%10=C/C)C98)=CC(C1CC23)C54` (configuration not stated), the GI50 in the experiment on OVCAR-4 was 7.01 µM (inactive); in the experiment on SR, 0.667 µM (active); with A498, 8.81 µM (inactive); in the experiment with UACC-62, 7.69 µM (inactive); in the experiment on T47D, 11.1 µM (inactive); with SK-MEL-5 it was 5.83 µM (inactive). Also, the GI50 was 2.13 µM (inactive) in the experiment with MCF7; 6.28 µM (inactive) in the experiment on MDA-MB-435; 6.64 µM (inactive) in the experiment with EKVX; 6.53 µM (inactive) with SK-MEL-2; 9.79 µM (inactive) in the experiment with SK-OV-3; 6.65 µM (inactive) in the experiment on NCI-H460. In addition, the GI50 in the experiment on HCT-116 is 5.53 µM (inactive); with RXF 393 it was 1.73 µM (inactive); with HCC 2998, 5.9 µM (inactive); in the experiment on MOLT-4 it was 1.11 µM (active); in the experiment on TK-10, 7.52 µM (inactive); in the experiment on U-251, 5.92 µM (inactive). Moreover, the GI50 was 1.62 µM (inactive) in the experiment with K562 and 10.3 µM (inactive) in the experiment with LOX IMVI.

Turning to `CCCCCCCCC/C=C1/CC(CO)(COC(=O)CC(C(C)C)C(C)C)OC1=O` (configuration not stated), the GI50 is 14.7 µM (inactive) in the experiment with OVCAR-4; 17.8 µM (inactive) in the experiment on SR; 3.14 µM (inactive) with A498; 12.5 µM (inactive) with UACC-62; 4.91 µM (inactive) in the experiment on T47D; 3.16 µM (inactive) in the experiment on SK-MEL-5. For the same compound, the GI50 in the experiment on MCF7 is 9.23 µM (inactive); with MDA-MB-435, 2.79 µM (inactive); in the experiment with EKVX, 4.35 µM (inactive); in the experiment with SK-MEL-2 it was 15.1 µM (inactive); with SK-OV-3 it was 17.4 µM (inactive); in the experiment on NCI-H460 it was 3.1 µM (inactive). Also, the GI50 in the experiment on HCT-116 was 13.2 µM (inactive); in the experiment with RXF 393, 13.9 µM (inactive); in the experiment with HCC 2998, 2.39 µM (inactive); with MOLT-4, 1.16 µM (inactive); in the experiment on TK-10, 2.89 µM (inactive); with U-251, 11.9 µM (inactive). In addition, the values for the GI50 with K562 and in the experiment on LOX IMVI were 0.36 µM (active) and 11.5 µM (inactive), respectively.

On to `N#C/C(=C\c1ccc([N+](=O)[O-])o1)c1n[nH]c(Cc2ccccc2)n1`, for which the GI50 in the experiment with OVCAR-4 is 1.82 µM (inactive); in the experiment with SR, 0.173 µM (active); with A498 it was 6.32 µM (inactive); in the experiment on UACC-62 it was 1.52 µM (inactive); with T47D it was 2 µM (inactive); in the experiment with SK-MEL-5, 1.05 µM (active). Besides, the GI50 is 2.28 µM (inactive) in the experiment with MCF7; 1.67 µM (inactive) in the experiment with MDA-MB-435; 2.72 µM (inactive) in the experiment on EKVX; 1.99 µM (inactive) in the experiment on SK-MEL-2; 4.52 µM (inactive) with SK-OV-3; 3.3 µM (inactive) in the experiment on NCI-H460. In addition, the GI50 in the experiment on HCT-116 is 0.232 µM (active); in the experiment with RXF 393 it was 0.423 µM (active); in the experiment on HCC 2998, 1.63 µM (inactive); with MOLT-4 it was 0.406 µM (active); in the experiment with TK-10 it was 2 µM (inactive); with U-251 it was 2.81 µM (inactive). For the same compound, the GI50 with K562 is 1.55 µM (inactive); in the experiment on LOX IMVI, 1.07 µM (active).

With `Cc1cc(=O)[nH]c2c1C(=O)c1c(C)cc(=O)n(C)c1C2=O`, the GI50 in the experiment with OVCAR-4 is 0.195 µM (active); in the experiment on SR, 0.125 µM (active); in the experiment with A498 it was 0.214 µM (active); with UACC-62, 0.0171 µM (active); in the experiment on T47D it was 0.303 µM (active); in the experiment with SK-MEL-5, 0.0151 µM (active). Besides, the GI50 in the experiment with MCF7 was 0.0168 µM (active); with MDA-MB-435, 0.0142 µM (active); in the experiment on EKVX, 0.205 µM (active); in the experiment on SK-MEL-2, 0.0208 µM (active); in the experiment on SK-OV-3 it was 0.182 µM (active); in the experiment with NCI-H460 it was 0.187 µM (active). Moreover, the GI50 is 0.1 µM (active) in the experiment with HCT-116; 0.138 µM (active) in the experiment with RXF 393; 0.0261 µM (active) in the experiment with HCC 2998; 0.212 µM (active) in the experiment on MOLT-4; 0.192 µM (active) in the experiment with TK-10; 0.11 µM (active) in the experiment with U-251. The GI50 in the experiment on K562 and with LOX IMVI was 0.122 µM (active) in each case.

In the case of `COc1cc(C[C@@H](C)N)cc(OC)c1`, the GI50 in the experiment with OVCAR-4, with SR, in the experiment with A498, in the experiment with UACC-62, with T47D and with SK-MEL-5 was > 100 µM (inactive) each time. The GI50 with MCF7, in the experiment with MDA-MB-435, in the experiment on SK-MEL-2, with SK-OV-3, in the experiment with NCI-H460 and with HCT-116 was > 100 µM (inactive) throughout. In addition, the GI50 was 43.7 µM (inactive) in the experiment with RXF 393; > 100 µM (inactive) in the experiment with HCC 2998; > 100 µM (inactive) in the experiment on MOLT-4; > 100 µM (inactive) in the experiment on TK-10; > 100 µM (inactive) in the experiment with U-251; > 100 µM (inactive) in the experiment with K562. Moreover, the GI50 with LOX IMVI was > 100 µM (inactive).

Take `Nc1cc2c(c3ccccc13)C(CCl)CN2C(=O)c1cc2cc(NC(=O)Nc3ccc4[nH]c(C(=O)N5CC(CCl)c6c5cc(N)c5ccccc65)cc4c3)ccc2[nH]1` (configuration not stated): the GI50 in the experiment on OVCAR-4 was 1.79 µM (inactive); in the experiment on SR it was < 0.01 µM (active); in the experiment on A498, 0.197 µM (active); in the experiment on UACC-62 it was 0.0634 µM (active); in the experiment on T47D, < 0.0377 µM (active); in the experiment with SK-MEL-5, 0.141 µM (active). For the same compound, the GI50 was 0.0284 µM (active) with MCF7; 0.548 µM (active) in the experiment with MDA-MB-435; 1.74 µM (inactive) in the experiment on EKVX; 0.995 µM (active) in the experiment with SK-MEL-2; 0.506 µM (active) with SK-OV-3; < 0.01 µM (active) in the experiment on NCI-H460. For the same compound, the GI50 was 0.172 µM (active) in the experiment on HCT-116; 0.0719 µM (active) in the experiment with RXF 393; 0.259 µM (active) in the experiment with HCC 2998; < 0.01 µM (active) with MOLT-4; 1.42 µM (inactive) with TK-10; 0.0573 µM (active) in the experiment on U-251. Moreover, the GI50 in the experiment on K562 was 0.367 µM (active); in the experiment on LOX IMVI, 0.0358 µM (active).

Take `CCOC(=O)/C=C(/C(=O)OCC)n1cc(C)c(=O)n(Cc2cn(COCCOC(C)=O)nn2)c1=O`: the GI50 was 20 µM (inactive) in the experiment on OVCAR-4; 20.9 µM (inactive) in the experiment with SR; 50.5 µM (inactive) in the experiment on A498; 17.1 µM (inactive) in the experiment with UACC-62; 25.8 µM (inactive) in the experiment with T47D; 24.9 µM (inactive) in the experiment with SK-MEL-5. Besides, the GI50 in the experiment with MCF7 is 16.5 µM (inactive); in the experiment with MDA-MB-435 it was 18.3 µM (inactive); in the experiment on EKVX it was 16.7 µM (inactive); in the experiment with SK-MEL-2, 45.8 µM (inactive); in the experiment with SK-OV-3 it was > 100 µM (inactive); in the experiment with NCI-H460 it was > 40.6 µM (inactive). In addition, the GI50 in the experiment with HCT-116 was 20.7 µM (inactive); in the experiment on RXF 393, 23.7 µM (inactive); in the experiment on HCC 2998 it was 17.3 µM (inactive); in the experiment on MOLT-4, 15 µM (inactive); with TK-10, 14.2 µM (inactive); in the experiment with U-251 it was 26.3 µM (inactive). Also, the GI50 was 7.18 µM (inactive) in the experiment with K562 and 22.2 µM (inactive) in the experiment on LOX IMVI.

For the compound `O=C(O)c1ccccc1-c1ccccc1C(=O)Nc1ccc2c(c1)Cc1ccccc1-2`, the GI50 in the experiment on OVCAR-4 was 60.1 µM (inactive); with SR, 28.4 µM (inactive); in the experiment with A498 it was 19.4 µM (inactive); in the experiment with UACC-62, 16.7 µM (inactive); in the experiment with T47D it was 26.3 µM (inactive); in the experiment on SK-MEL-5, 15.5 µM (inactive). Further, the GI50 in the experiment on MCF7 is 28.1 µM (inactive); with MDA-MB-435 it was 41.9 µM (inactive); in the experiment with EKVX it was 22.1 µM (inactive); in the experiment on SK-MEL-2 it was 22.6 µM (inactive); with SK-OV-3, 59.4 µM (inactive); in the experiment on NCI-H460, 19.2 µM (inactive). Also, the GI50 with HCT-116 was 18 µM (inactive); in the experiment on RXF 393, 46.7 µM (inactive); in the experiment on HCC 2998 it was 17.8 µM (inactive); in the experiment on TK-10, 45.1 µM (inactive); in the experiment with U-251 it was 28.6 µM (inactive); with LOX IMVI, 22.5 µM (inactive).
